What was measured:
[1] = tested on: PI3-K in BT20 cells (phosphorylation of AKT at serine 473); assay: PI3-Kα Cellular Assay (AKT Ser473 phosphorylation ELISA in BT20 cells); assay type: cell-based, human; details: Homo sapiens, BT-20, pAKT Ser473 ELISA, 1 hour incubation
Protocol: Compounds of the present invention were evaluated for potency against PI3-K using a cellular assay as follows.
Healthy growing human breast cancer cells BT20 (PI3K mutated) are used for the assay. BT20 cells are grown in 10% FBS+GLN (1:100)+PS (1:100)+1 mM Sodium Pyruvate+0.1 mM Sodium Bicarbonate+Non-Essential Amino Acids Solution (1:100) MEM medium (MEM+all). […] The cells are re-suspended in 10% FBS MEM all and are centrifuged down at 1400 rpm for 5 minutes. The cells are re-suspended in 0.5% FBS MEM all and are counted on a cell counter. The cells are seeded at 25,000 cells/well in volume of 100 μL/well in 0.5% FBS MEM all in a 96 well flat-bottom plate. The negative control wells receive only 100 μL of 0.5% FBS MEM all medium without cells. The plate is incubated overnight in a cell culture incubator with 5% CO2 at 37° C.
On day 2, testing compounds are prepared in 0.5% FBS MEM all medium and serially diluted at 1:3 for 11 test concentrations. Each concentration of the compounds is tested in duplicate. The compound solutions are added at 25 μL/well to the corresponded wells in cell plate, and 25 μL/well of the vehicle (0.5% DMSO in 0.5% FBS MEM all) is added to the negative control wells (no cells) and the positive control wells (cells without compounds). The plate is incubated for 1 hour in a cell culture incubator with 5% CO2 at 37° C. After 1 hour of incubation, the medium is removed, 100 μL/well of cell lysis buffer is added into the cell plate, and shake for 15 minutes at room temperature. […] After 1 hour, empty the contents of the wells, wash the plate 4 times with the wash buffer, and add 100 μL of TMB substrate solution (catalog #T0440, Sigma) into each well, and incubate with gentle shaking at room temperature for […]. After 15 minutes of color development, add 100 μL of stop solution (1N hydrochloric acid) to each well, and read the plate at 450 nm on ELISA plate reader.

[2] = target: PI3-Kα (Mus musculus (Mouse), UniProt P42337); assay: PI3-Kα Biochemical Assay (fluorescence polarization kinase assay)
Chain of PI3-Kα (P42337 whole entry, the tested form may be a part): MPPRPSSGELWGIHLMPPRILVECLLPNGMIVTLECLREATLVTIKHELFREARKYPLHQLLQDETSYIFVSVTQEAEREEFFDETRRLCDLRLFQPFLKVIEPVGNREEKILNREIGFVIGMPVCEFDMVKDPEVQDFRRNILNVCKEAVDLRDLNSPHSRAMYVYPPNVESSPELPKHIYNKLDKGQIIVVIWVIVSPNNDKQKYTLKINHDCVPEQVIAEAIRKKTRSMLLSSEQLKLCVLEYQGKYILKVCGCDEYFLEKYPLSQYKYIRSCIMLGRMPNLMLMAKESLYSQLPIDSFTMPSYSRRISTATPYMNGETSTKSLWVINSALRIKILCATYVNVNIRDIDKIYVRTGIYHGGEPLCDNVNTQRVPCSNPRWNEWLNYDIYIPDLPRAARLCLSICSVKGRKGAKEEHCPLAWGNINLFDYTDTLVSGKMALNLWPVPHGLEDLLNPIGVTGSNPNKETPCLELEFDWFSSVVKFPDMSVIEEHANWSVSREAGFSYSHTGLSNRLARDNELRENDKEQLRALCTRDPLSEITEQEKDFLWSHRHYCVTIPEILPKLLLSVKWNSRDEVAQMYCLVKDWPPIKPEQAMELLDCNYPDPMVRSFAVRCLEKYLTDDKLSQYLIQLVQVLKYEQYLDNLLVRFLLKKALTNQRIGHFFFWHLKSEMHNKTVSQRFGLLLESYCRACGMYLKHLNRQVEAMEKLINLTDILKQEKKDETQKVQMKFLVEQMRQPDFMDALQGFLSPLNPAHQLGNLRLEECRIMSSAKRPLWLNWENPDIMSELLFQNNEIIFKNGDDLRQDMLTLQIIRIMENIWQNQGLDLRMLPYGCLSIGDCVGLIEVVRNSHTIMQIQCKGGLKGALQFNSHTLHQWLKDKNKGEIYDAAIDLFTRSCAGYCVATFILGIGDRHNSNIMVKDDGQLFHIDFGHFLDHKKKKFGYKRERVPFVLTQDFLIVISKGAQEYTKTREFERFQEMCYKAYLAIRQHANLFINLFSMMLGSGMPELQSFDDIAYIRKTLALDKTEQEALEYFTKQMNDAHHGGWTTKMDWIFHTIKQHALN
Chain of PI3-Kα (P26450 whole entry partner, the tested form may be a part): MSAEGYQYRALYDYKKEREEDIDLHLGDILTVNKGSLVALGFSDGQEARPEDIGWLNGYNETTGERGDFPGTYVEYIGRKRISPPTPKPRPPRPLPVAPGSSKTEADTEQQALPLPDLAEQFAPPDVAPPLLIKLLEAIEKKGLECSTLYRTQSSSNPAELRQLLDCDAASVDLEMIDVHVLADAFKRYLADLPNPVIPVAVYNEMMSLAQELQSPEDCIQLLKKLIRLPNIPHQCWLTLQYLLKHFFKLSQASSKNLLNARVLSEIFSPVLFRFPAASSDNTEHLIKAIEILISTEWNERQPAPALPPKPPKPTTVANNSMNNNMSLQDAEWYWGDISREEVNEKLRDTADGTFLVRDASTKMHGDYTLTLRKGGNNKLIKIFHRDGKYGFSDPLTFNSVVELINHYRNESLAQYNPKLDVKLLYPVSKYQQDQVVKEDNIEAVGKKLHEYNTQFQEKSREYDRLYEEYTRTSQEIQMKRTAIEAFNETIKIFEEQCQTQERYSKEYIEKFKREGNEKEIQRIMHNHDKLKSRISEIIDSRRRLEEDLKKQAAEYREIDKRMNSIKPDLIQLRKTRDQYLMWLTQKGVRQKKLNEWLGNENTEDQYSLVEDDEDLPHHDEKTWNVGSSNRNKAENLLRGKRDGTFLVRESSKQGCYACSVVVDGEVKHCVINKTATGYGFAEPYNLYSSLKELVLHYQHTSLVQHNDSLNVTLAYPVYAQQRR
Protocol: Compounds of the present invention were evaluated for potency against PI3-Kα using an in vitro kinase assay. PI3-Kα activity is measured in vitro by determining the level of phosphorylation of the substrate PI(4,5)P2. The formation of product PI(3,4,5)P3 is monitored by binding to the Grip1 PH domain in a ligand displacement fluorescence polarization (FP) assay, in which the TAMRA-labeled PI(3,4,5)P3 complexed with Grip1 PH domain is displaced by PI(3,4,5)P3 formed in the PI3-Kα reaction resulting in a decrease in FP signal. Mouse PI3-Kα P110 and P85 subunits were co-expressed in insect cells and co-purified to homogeneity. PI(4,5)P2 were obtained from Cayman. TAMRA-labeled PI(3,4,5)P3 were from Echelon, Grip1 PH domain from Dundee and other reagents were from Sigma.
All assays were performed in a Corning solid black 96-well half area plate using LJL Analyst (Molecular Devices) at room temperature. The assay buffer contained 50 mM HEPES, pH 7.4, 150 mM NaCl, 5 mM DTT, and 0.05% CHAPS. Dry powder PI(4,5)P2 was dissolved in 50 mM TRIS, pH 8 to make 1 mM stock solution. The PI(4,5)P2 stock solution was then diluted in the assay buffer to 60 μM, and sonicated for 30 sec before use. To the assay plate, the following reagents were added in sequence: 10 μL of 60 μM PI(4,5)P2, 5 μL of 4 nM PI3-Kα, 2 μL of compound in 25% DMSO, 3 μL of mixture containing 200 μM ATP and 33 mM MgCl2. The final volume for the reaction was 20 μL. The reaction mixture was incubated at room temperature for 35 min. The reaction was then stopped by 20 μL of 20 mM EDTA. […] The FP signal was allowed to develop for 40 min before reading on a LJL analyst at excitation 535 nm and emission 580 nm.
The percentage of inhibition was calculated based on the following equation % inhibition=[1−(FPcompound−FPmax)/(FPmin−FPmax)]×100, where FPcompound is the FP reading at a given compound concentration, FPmin is the FP signal of the PI3-Kα reaction in the absence of a compound, and FPmax is the background FP signal in the absence of PI3-Kα and a compound. The IC50 was determined by fitting the FP signal vs. compound concentration to a sigmoidal dose response equation using GraphPad Prism curve fitting program.

Cc1nc(N)nc2c1cc(-c1cnn(CCO)c1)c(=O)n2C1CCCC1 [Compound 106, 2-Amino-8-cyclopentyl-6-(1-(2-hydroxyethyl)-1H-pyrazol-4-yl)-4-methylpyrido[2,3-d]pyrimidin-7(8H)-one]
IC50 [1]: 495 nM
IC50 [2]: 45 nM

CNc1nc(C)c2cc(-c3cncnc3)c(=O)n(C3CCCC3)c2n1 [Compound 107, 8-Cyclopentyl-4-methyl-2-(methylamino)-6-(pyrimidin-5-yl)pyrido[2,3-d]pyrimidin-7(8H)-one]
IC50 [1]: 305 nM
IC50 [2]: 23 nM

CNc1nc(C)c2cc(-c3ccc(O)c(OC)c3)c(=O)n(C3CCCC3)c2n1 [Compound 108, 8-cyclopentyl-6-(4-hydroxy-3-methoxyphenyl)-4-methyl-2-(methylamino)pyrido[2,3-d]pyrimidin-7(8H)-one]
IC50 [1]: 3.82 nM
IC50 [2]: 1.57 nM
inhibition at 10 µM [2]: 99%

CNc1nc(C)c2cc(-c3ccc(OC)nc3)c(=O)n(C3CCC3)c2n1 [Compound 109, 8-Cyclobutyl-6-(6-methoxypyridin-3-yl)-4-methyl-2-(methylamino)pyrido[2,3-d]pyrimidin-7(8H)-one]
IC50 [1]: 58.4 nM
IC50 [2]: 6.3 nM
inhibition at 10 µM [2]: 99%

C=CCn1c(=O)c(-c2ccc(OC)nc2)cc2c(C)nc(NC)nc21 [Compound 110, 8-allyl-6-(6-methoxypyridin-3-yl)-4-methyl-2-(methylamino)pyrido[2,3-d]pyrimidin-7(8H)-one]
IC50 [1]: 106 nM
IC50 [2]: 17 nM

Cc1nc(N)nc2c1cc(-c1ccc(Cl)nc1)c(=O)n2C1CCCC1 [Compound 112, 2-amino-6-(6-chloropyridin-3-yl)-8-cyclopentyl-4-methylpyrido[2,3-d]pyrimidin-7(8H)-one]
IC50 [1]: 74.2 nM
IC50 [2]: 39.1 nM

CNc1nc(C)c2cc(-c3ccc(OC)nc3)c(=O)n(C(C)C)c2n1 [Compound 113, 8-Isopropyl-6-(6-methoxypyridin-3-yl)-4-methyl-2-(methylamino)pyrido[2,3-c]pyrimidin-7(8H)-one]
IC50 [1]: 95.2 nM
IC50 [2]: 21 nM

Cc1nc(NCC(C)(C)O)nc2c1cc(-c1cccc(O)c1)c(=O)n2C1CCCC1 [Compound 114, 8-Cyclopentyl-2-(2-hydroxy-2-methylpropylamino)-6-(3-hydroxyphenyl)-4-methylpyrido[2,3-d]-pyrimidin-7(8H)-one]
IC50 [1]: 1180 nM
IC50 [2]: 110 nM

CNc1nc(C)c2cc(-c3cnc4[nH]ccc4c3)c(=O)n(C3CCCC3)c2n1 [Compound 115, 8-cyclopentyl-4-methyl-2-(methylamino)-6-(1H-pyrrolo[2,3-b]pyridin-5-yl)pyrido[2,3-d]pyrimidin-7(8H)-one]
IC50 [1]: 3.82 nM
IC50 [2]: 0.75 nM

COc1ccc(-c2cc3c(C)nc(NCC(C)(C)O)nc3n(C3CCCC3)c2=O)cn1 [Compound 116, 8-Cyclopentyl-2-(2-hydroxy-2-methylpropylamino)-6-(6-methoxypyridin-34)-4-methylpyrido[2,3-d]pyrimidin-7(8H)-one]
IC50 [1]: 5750 nM
IC50 [2]: 830 nM

CCNc1nc(C)c2cc(CCC(=O)N(CC)CC)c(=O)n(C3CCCC3)c2n1 [Compound 117, 3-[8-cyclopentyl-2-(ethylamino)-methyl-7-oxo-7,8-dihydropyrido[2,3-d]pyrimidin-6-yl]-N,N-diethylpropanamide]
IC50 [1]: 10000 nM
inhibition at 10 µM [2]: 32%

CCNc1nc(C)c2cc(CCC(=O)Nc3ncc[nH]3)c(=O)n(C3CCCC3)c2n1 [Compound 119]
IC50 [1]: 5710 nM
IC50 [2]: 310 nM

CNc1nc(C)c2cc(/C=C/O)c(=O)n(C3CCCC3)c2n1 [Compound 120, (E)-8-cyclopentyl-6-(2-hydroxyvinyl)-4-methyl-2-(methylamino)pyrido[2,3-d]pyrimidin-7(8H)-one]
IC50 [1]: 896 nM
IC50 [2]: 42 nM

CCNc1nc(C)c2cc(CCC(=O)N(C)C)c(=O)n(C3CCCC3)c2n1 [Compound 121, 3-(8-Cyclopentyl-2-(ethylamino)-4-methyl-7-oxo-7,8-dihydropyrido[2,3-d]pyrimidin-6-yl)-N,N-dimethylpropanamide]
IC50 [1]: 10000 nM
inhibition at 50 µM ([2]; at 50 μM): 27%

CNc1nc(C)c2cc(C(N)=O)c(=O)n(C3CCCC3)c2n1 [Compound 123, 8-Cyclopentyl-4-methyl-2-(methylamino)-7-oxo-7,8-dihydropyrido[2,3-d]pyrimidine-6-carboxamide]
IC50 [1]: 650 nM
IC50 [2]: 68 nM

CNc1nc(C)c2cc(-c3cn[nH]c3)c(=O)n(C3CCCC3)c2n1 [Compound 124, 8-cyclopentyl-4-methyl-2-(methylamino)-6-(1H-pyrazol-4-yl)pyrido[2,3-d]pyrimidin-7(8H)-one]
IC50 [1]: 2.58 nM
IC50 [2]: 8 nM

COc1ncccc1-c1cc2c(C)nc(N)nc2n(C2CCCC2)c1=O [Compound 126]
IC50 [1]: 5480 nM
IC50 [2]: 856 nM

Cc1nc(N)nc2c1cc(-c1cnc3[nH]ccc3c1)c(=O)n2C1CCCC1 [Compound 127, 2-amino-8-cyclopentyl-4-methyl-6-(1H-pyrrolo[2,3-b]pyridin-5-yl)pyrido[2,3-d]pyrimidin-7(8H)-one]
IC50 [1]: 2.76 nM
IC50 [2]: 0.48 nM

CNc1nc(C)c2cc(-c3cccnc3OC)c(=O)n(C3CCCC3)c2n1 [Compound 128, 8-cyclopentyl-6-(2-methoxypyridin-3-yl)-4-methyl-2-(methylamino)pyrido[2,3-d]pyrimidin-7(8H)-one]
IC50 [1]: 3530 nM
IC50 [2]: 275 nM

CCNc1nc(C)c2cc(CCCO)c(=O)n(C3CCCC3)c2n1 [Compound 129, 8-Cyclopentyl-2-(ethylamino)-6-(3-hydroxypropyl)-4-methylpyrido[2,3-d]pyrimidin-7(8H)-one]
IC50 [1]: 2750 nM
IC50 [2]: 4 nM

CCNc1nc(C)c2cc(CCC(=O)O)c(=O)n(C3CCCC3)c2n1 [Compound 130, 3-(8-Cyclopentyl-2-(ethylamino)-4-methyl-7-oxo-7,8-dihydropyrido[2,3-d]pyrimidin-6-yl)propanoic acid]
IC50 [1]: 10000 nM
IC50 [2]: 54 nM

CCNc1nc(C)c2cc(-c3cccnc3N)c(=O)n(C3CCCC3)c2n1 [Compound 131, 6-(2-aminopyridin-3-yl)-8-cyclopentyl-2-(ethylamino)-4-methylpyrido[2,3-d]pyrimidin-7(8H)-one]
IC50 [1]: 7980 nM
IC50 [2]: 3400 nM

CCNc1nc(C)c2cc(CCC(=O)OCC)c(=O)n(C3CCCC3)c2n1 [Compound 132, Ethyl 3-(8-cyclopentyl-2-(ethylamino)-4-methyl-7-oxo-7,8-dihydropyrido[2,3-d]pyrimidin-6-yl)propanoate]
IC50 [1]: 10000 nM
IC50 [2]: 5500 nM

CNc1nc(C)c2cc(C#N)c(=O)n(C3CCCC3)c2n1 [Compound 133, 2-Methylamino-6-carbonitrile-8-cyclopentyl-4-methylpyrido[2,3-d]pyrimidin-7(8H)-one]
IC50 [1]: 603 nM
IC50 [2]: 60 nM

CNc1nc(C)c2cc(-c3ncccc3F)c(=O)n(C3CCCC3)c2n1 [Compound 134, 8-cyclopentyl-6-(3-fluoropyridin-2-yl)-4-methyl-2-(methylamino)pyrido[2,3-d]pyrimidin-7(8H)-one]
IC50 [1]: 8300 nM
IC50 [2]: 2100 nM
